In general, IC50 refers to the concentration needed to halve the response being measured.

SMILES strings stand for the structures.

For the first experiment, the target named is T1, human recombinant PDE9 enzyme (Homo sapiens, UniProt O76083).
T1 construct: made in house; host or cells: SF-9 insect cells
T1 sequence (O76083 whole entry): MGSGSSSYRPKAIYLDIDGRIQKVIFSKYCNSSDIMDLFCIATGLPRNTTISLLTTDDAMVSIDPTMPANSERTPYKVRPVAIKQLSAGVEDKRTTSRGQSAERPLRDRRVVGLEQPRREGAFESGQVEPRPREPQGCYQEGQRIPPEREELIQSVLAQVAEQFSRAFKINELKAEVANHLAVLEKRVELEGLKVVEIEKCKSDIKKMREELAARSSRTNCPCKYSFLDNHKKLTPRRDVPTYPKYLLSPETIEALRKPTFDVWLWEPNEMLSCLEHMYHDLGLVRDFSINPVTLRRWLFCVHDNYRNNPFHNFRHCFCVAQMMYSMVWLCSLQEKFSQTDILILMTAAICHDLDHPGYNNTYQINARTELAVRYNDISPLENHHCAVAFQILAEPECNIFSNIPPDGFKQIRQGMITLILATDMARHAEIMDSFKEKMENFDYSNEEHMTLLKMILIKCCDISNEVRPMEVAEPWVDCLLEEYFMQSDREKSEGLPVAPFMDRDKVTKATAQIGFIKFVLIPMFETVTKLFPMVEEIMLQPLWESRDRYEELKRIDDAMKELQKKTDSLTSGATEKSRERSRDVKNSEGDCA
Kind of experiment: Phosphodiesterase 9 (PDE9) inhibitory activity, Scintillation Proximity (SPA) assay. Conditions: human recombinant PDE9 from SF-9 cells; 50 nM [3H]cGMP; room temperature, 30 min; Examples 3-114; read-out: G5678A (U): IC50. The experiment is classed as biochemical. The essentials: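 Recombinant human PDE9 from SF-9 cell lysate supernatant, diluted so that ≤20% of [3H]cGMP substrate was hydrolysed to 5′GMP. Reaction started with enzyme and run 30 min at room temperature with 2% DMSO final. SPA beads were counted after >300 min; background came from a high concentration of a PDE inhibitor.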
On the technique in general: Scintillation proximity formats need no separation of bound from free tracer.
Turning to `Cc1ncccc1CN1C[C@@H](C)[C@H](c2nc3c(cnn3C3CCCC3)c(=O)[nH]2)C1` (racemic) [Example 17, 1-cyclopentyl-6-{(3,4-trans)-4-methyl-1-[(2-methylpyridin-3-yl)methyl]pyrrolidin-3-yl}-1,5-dihydro-4H-pyrazolo[3,4-d]pyrimidin-4-one], the IC50 stood at 16.2 nM. On the same count and under the same terms, with `C[C@@H]1CN(Cc2ccc3nccnc3c2)C[C@H]1c1nc2c(cnn2C2CCCC2)c(=O)[nH]1` (racemic) [Example 13, 1-cyclopentyl-6-[(3,4-trans)-4-methyl-1-(quinoxalin-6-ylmethyl)pyrrolidin-3-yl]-1,5-dihydro-4H-pyrazolo[3,4-d]pyrimidin-4-one] the figure was 6.61 nM; with `C[C@@H]1CN(Cc2c(F)cccc2F)C[C@H]1c1nc2c(cnn2C2CCOCC2)c(=O)[nH]1` [Example 106, 6-[(3S,4S)-1-(26-difluorobenzyl)-4-methylpyrrolidin-3-yl]-1-(tetrahydro-2H-pyran-4-yl)-1,5-dihydro-4H-pyrazolo[3,4-d]pyrimidin-4-one], 8.06 nM. In the case of `COc1ccc(CN2C[C@@H](C)[C@H](c3nc4c(c(C)nn4C4CCOCC4)c(=O)[nH]3)C2)cn1` [Example 94, 6-{(3S,4S)-1-[(6-methoxypyridin-3yl)methyl]-4-methylpyrrolidin-3-yl}-3methyl-1-(tetrahyrdro-2H-pyran-4-yl)-1,5-dihydro-4H-pyrazolo[3,4-d]pyrimidin-4-one], the IC50 stood at 14.2 nM.

In the case of `C[C@@H]1CN(Cc2cccnc2)C[C@H]1c1nc2c(cnn2C2CCCC2)c(=O)[nH]1` (racemic) [Example 7, 1-cyclopentyl-6-[(3,4-trans)-4-methyl-1-(pyridin-3-ylmethyl)pyrrolidin-3-yl]-1,5-dihydro-4H-pyrazolo[3,4-d]pyrimidin-4-one], the IC50 was 11.6 nM. Regarding `C[C@@H]1CN(Cc2cnc3ccccc3c2)C[C@H]1c1nc2c(cnn2C2CCCC2)c(=O)[nH]1` (racemic) [Example 19, 1-cyclopentyl-6-[(3,4-trans)-4-methyl-1-(quinolin-3-ylmethyl)pyrrolidin-3-yl]-1,5-dihydro-4H-pyrazolo[3,4-d]pyrimidin-4-one], the IC50 was determined as 2.68 nM. Still for that read-out and setting: the value for `Cc1nccc(CN2C[C@@H](C)[C@H](c3nc4c(cnn4C4CCOCC4)c(=O)[nH]3)C2)n1` [Example 78, 6-{(3S,4S)-4-methyl-1-[(2-methylpyrimidin-4-yl)methyl]pyrrolidin-3-yl}-1-(tetrahydro-2H-pyran-4-yl)-1,5-dihydro-4H-pyrazolo[3,4-d]pyrimidin-4-one] was 4.35 nM. For the compound `C[C@@H]1CN(Cc2ccccc2)C[C@H]1c1nc2c(cnn2C2CCC(F)(F)CC2)c(=O)[nH]1` (racemic) [Example 63, 6-[(3,4-trans)-1-benzyl-4-methylpyrrolidin-3-yl]-1-(4,4-difluorocyclohexyl)-1,5-dihydro-4H-pyrazolo[3,4-d]pyrimidin-4-one], the IC50 is 123 nM.

Staying with this experiment, now noted: human recombinant PDE9 from SF-9 cells; 50 nM [3H]cGMP; room temperature, 30 min; additional compounds Ex. 115-228; read-out: G5678A (U):IC50.
Consider `COc1cc(CN2C[C@@H](C)[C@H](c3nc4c(cnn4C4CCCC4)c(=O)[nH]3)C2)cc(OC)c1` (racemic) [Example 152, 1-cyclopentyl-6-[(3,4-trans)-1-(3,5-dimethoxybenzyl)-4-methylpyrrolidin-3-yl]-1,5-dihydro-4H-pyrazolo[3,4-d]pyrimidin-4-one], for which the IC50 stood at 42.2 nM.

Take `Cc1cc(CN2C[C@@H](C)[C@H](c3nc4c(cnn4C4CCCC4)c(=O)[nH]3)C2)ccn1` (racemic) [Example 116, 1-cyclopentyl-6-{(3,4-trans)-4-methyl-1-[(2-methylpyridin-4-yl)methyl]pyrrolidin-3-yl}-1,5-dihydro-4H-pyrazolo[3,4-d]pyrimidin-4-one]: the concentration for half-maximal inhibition (IC50) came to 34 nM. In the case of `C[C@@H]1CN(Cc2ccc3c(c2)OCCN3C)C[C@H]1c1nc2c(cnn2C2CCCC2)c(=O)[nH]1` (racemic) [Example 200, 1-cyclopentyl-6-{(3,4-trans)-4-methyl-1-[(4-methyl-3,4-dihydro-2H-1,4-benzoxazin-7-yl)methyl]pyrrolidin-3-yl}-1,5-dihydro-4H-pyrazolo[3,4-d]pyrimidin-4-one], the IC50 amounted to 176 nM. Regarding `C[C@@H]1CN(Cc2cn3ccccc3n2)C[C@H]1c1nc2c(cnn2C2CCCC2)c(=O)[nH]1` (racemic) [Example 178, 1-cyclopentyl-6-[(3,4-trans)-1-(imidazo[1,2-a]pyridin-2-ylmethyl)-4-methylpyrrolidin-3-yl]-1,5-dihydro-4H-pyrazolo[3,4-d]pyrimidin-4-one], the IC50 was 44.7 nM. On the same count and under the same terms, the value for `C[C@@H]1CN(Cc2cc3ccccc3nn2)C[C@H]1c1nc2c(cnn2C2CCCC2)c(=O)[nH]1` (racemic) [Example 182, 6-[(3,4-trans)-1-(cinnolin-3-ylmethyl)-4-methylpyrrolidin-3-yl]-1-cyclopentyl-1,5-dihydro-4H-pyrazalo[3,4-d]pyrimidin-4-one] was 22.5 nM; that for `C[C@@H]1CN(Cc2ccccc2Cl)C[C@H]1c1nc2c(cnn2C2CCCC2)c(=O)[nH]1` (racemic) [Example 219, 6-[(3,4-trans)-1-(2-chlorobenzyl)-4-methylpyrrolidin-3-yl]-1-cyclopentyl-1,5-dihydro-4H-pyrazolo[3,4-d]pyrimidin-4-one] was 48.4 nM.

Regarding `C[C@@H]1CN(Cc2ccc(Cl)cc2Cl)C[C@H]1c1nc2c(cnn2C2CCCC2)c(=O)[nH]1` (racemic) [Example 213, 1-cyclopentyl-6-[(3,4-trans)-1-(2,4-dichlorobenzyl)-4-methylpyrrolidin-3-yl]-1,5-dihydro-4H-pyrazolo[3,4-d]pyrimidin-4-one], the IC50 amounted to 124 nM.

In the case of `C[C@@H]1CN(Cc2ccc(OC(F)F)cc2)C[C@H]1c1nc2c(cnn2C2CCCC2)c(=O)[nH]1` (racemic) [Example 159, 1-cyclopentyl-6-{(3,4-trans)-1-[4-(difluoromethoxy)benzyl]-4-methylpyrrolidin-3-yl}-1,5-dihydro-4H-pyrazolo[3,4-d]pyrimidin-4-one], the half-maximal inhibitory concentration (IC50) was 59.9 nM. With `C[C@@H]1CN(Cc2cccc3nsnc23)C[C@H]1c1nc2c(cnn2C2CCCC2)c(=O)[nH]1` (racemic) [Example 221, 6-[(3,4-trans)-1-(2,1,3-benzothiadiazol-4-ylmethyl)-4-methylpyrrolidin-3-yl]-1-cyclopentyl-1,5-dihydro-4H-pyrazolo[3,4-d]pyrimidin-4-one], the half-inhibitory concentration (IC50) worked out at 12.7 nM. Consider `C[C@@H]1CN(Cc2cccc3c2OCC3)C[C@H]1c1nc2c(cnn2C2CCCC2)c(=O)[nH]1` (racemic) [Example 126, 1-cyclopentyl-6-[(3,4-trans)-1-(2,3-dihydro-1-benzofuran-7-ylmethyl)-4-methylpyrrolidin-3-yl]-1,5-dihydro-4H-pyrazolo[3,4-d]pyrimidin-4-one], for which the IC50 was 88.7 nM. Same read-out and setting: with `Cc1cc(CN2C[C@@H](C)[C@H](c3nc4c(cnn4C4CCCC4)c(=O)[nH]3)C2)ccc1F` (racemic) [Example 184, 1-cyclopentyl-6-[(3,4-trans)-1-(4-fluoro-3-methylbenzyl)-4-methylpyrrolidin-3-yl]-1,5-dihydro-4H-pyrazolo[3,4-d]pyrimidin-4-one] the figure was 90 nM; with `C[C@@H]1CN(Cc2ccc3ccccc3c2)C[C@H]1c1nc2c(cnn2C2CCCC2)c(=O)[nH]1` (racemic) [Example 137, 1-cyclopentyl-6-[(3,4-trans)-4-methyl-1-(2-naphthylmethyl)pyrrolidin-3-yl]-1,5-dihydro-4H-pyrazolo[3,4-d]pyrimidin-4-one], 54.5 nM.

For the origin of these results see patent US7964607B2, “Pyrazolo[3,4-d]pyrimidine compounds” (Pfizer Inc., priority 2007, dated 2011).
